Legend:
[1] = Average particle size of the preparations, measured with a particle size measurement apparatus; format: physicochemical; settings: preparations of Examples 21 and 22 (composition containing the compound and f7 siRNA-1)
Source text: Each sample was weighed to be compound 1/PEG-DMPE Na (manufactured by NOF Corp.)=57.3/5.52 mmol/L, and suspended in an aqueous solution containing hydrochloric acid and ethanol. A homogenous suspension was obtained by repeating stirring with a vortex stirring mixer and heating. This suspension was passed through a 0.05-μm polycarbonate membrane filter at room temperature to obtain a dispersion of compound 1/PEG-DMPE Na particles (liposomes). The average particle size of the obtained liposomes was measured with a particle size measurement apparatus to confirm that the average particle size fell within the range of 30 nm to 100 nm. The obtained liposome dispersion and the f7 siRNA-1 solution were mixed at a ratio of liposome dispersion:f7 siRNA-1 solution=3:1. A 3-fold amount of distilled water was further added thereto and mixed to prepare a compound 1/PEG-DMPE Na/f7 siRNA-1 complex dispersion.
The average particle sizes of the preparations (compositions) obtained in Examples 21 and 22 were measured using a particle size measurement apparatus.
The average particle sizes of the preparations (compositions) obtained in Example 23 and Comparative Example 1 were measured using a particle size measurement apparatus.

factor VII gene = test: Test Example 1: in vivo drug efficacy evaluation, factor VII protein concentration in plasma after i.v. administration of f7 siRNA-1 preparations; parameters: species or system Mice (Balb/c); settings: mice, intravenous, 0.03 and/or 0.3 mg/kg siRNA (f7 siRNA-1), 48 hours after administration; FIGS. 1 and 2
Method: The preparations (compositions containing compounds 1, 2, and 4 to 7, respectively, and f7 siRNA-1) obtained in Examples 21 and 22 were each subjected to an in vivo drug efficacy evaluation test by a method given below. Each preparation was used after being diluted with physiological saline according to the test.
Mice (Balb/c, obtained from CLEA Japan, Inc.) were acclimatized and raised. Then, each preparation was intravenously administered at 0.03 and/or 0.3 mg/kg in terms of the siRNA concentration to the mice. 48 hours after the administration, blood was collected, and the collected blood was centrifuged at 8000 rpm at 4° C. for 8 minutes using a high-speed refrigerated microcentrifuge (TOMY MX305; manufactured by Tomy Seiko Co., Ltd.). Absorbance in standard solutions and the plasma samples was measured in ARVO (405 nm) using BIOPHEN VII kit (manufactured by ANIARA, cat#: A221304) according to the method described in the instruction manual of the product. A calibration curve was prepared from the obtained absorbance, and the factor VII protein concentration in plasma was calculated. n=3 for each group.

CCCCC/C=C\C/C=C\CCCCCCCCCCC1(CCCCCCCCCC/C=C\C/C=C\CCCCC)CN(C)C1 [Compound 7, 3,3-Bis[(11Z,14Z)-icosa-11,14-dien-1-yl]-1-methylazetidine]
Particle size of obtained preparation (nm) [1]: 128 nm

CCCCCC/C=C\CCCCCCCCC1(CCCCCCCC/C=C\CCCCCC)CN(C)C1 [Compound 6, 3,3-Bis[(Z)-hexadec-9-en-1-yl]-1-methylazetidine]
Particle size of obtained preparation (nm) [1]: 123 nm

CCCCC/C=C\C/C=C\CCCCCCCCC1(CCCCCCCC/C=C\C/C=C\CCCCC)CN(C(=O)OCCCN(C)C)C1 [Compound 4, 3-(Dimethylamino)propyl 3,3-bis[(9Z,12Z)-octadeca-9,12-dien-1-yl]azetidine-1-carboxylate]
Particle size of obtained preparation (nm) [1]: 127 nm

CCCCC/C=C\C/C=C\CCCCCCCCC1(CCCCCCCC/C=C\C/C=C\CCCCC)CN(C)C1 [Compound 1, 1-Methyl-3,3-bis[(9Z,12Z)-octadeca-9,12-dien-1-yl]azetidine]
Particle size of obtained preparation (nm) [1]: 113 nm | expression of the factor VII gene (factor VII protein concentration in plasma) (factor VII gene): strongly suppressed

CCCCC/C=C\C/C=C\CCCCCCCCC1(CCCCCCCC/C=C\C/C=C\CCCCC)CN(CCC)C1 [Compound 2, 3,3-Bis[(9Z,12Z)-octadeca-9,12-dien-1-yl]-1-propylazetidine]
Particle size of obtained preparation (nm) [1]: 116 nm | expression of the factor VII gene (factor VII protein concentration in plasma) (factor VII gene): strongly suppressed

CCCCCCCC/C=C\CCCCCCCCC1(CCCCCCCC/C=C\CCCCCCCC)CN(C)C1 [Compound 5, 1-Methyl-3,3-bis[(Z)-octadec-9-en-1-yl]azetidine]
Particle size of obtained preparation (nm) [1]: 115 nm
